Assay results published in patent US4472304A, “(Amido)N-substituted bleomycins, salts thereof and process for preparation thereof” (Nippon Kayaku Kabushiki Kaisha, priority 1981, dated 1984).

Columns and labels:
Bacillus subtilis = assay: Antimicrobial activity against Bacillus subtilis (agar plate-cylinder); assay type: cell-based; conditions: standard bleomycin A2 (copper-free) assumed 1,000 mcg potency/mg
Experimental: (§1) 2. ANT[…] MYC[…] ATCC 607 AND BACILLUS SUBTILIS
(§2) The antimicrobial activity was tested against the captioned test organisms by the method of agar plate-cylinder. The activity was recorded on the assumption that the activity of standard sample of bleomycin A2 (copper-free form) is 1,000 mcg poteney/mg.

[1] = tested on: Mycobacterium smegmatis ATCC 607; assay: Antimicrobial activity against Mycobacterium smegmatis ATCC 607 (agar plate-cylinder); assay type: cell-based; conditions: standard bleomycin A2 (copper-free) assumed 1,000 mcg potency/mg
Experimental: as §1, §2

| Compound | Antimicrobial potency of Cu-free compound against Bacillus subtilis (Bacillus subtilis) | Antimicrobial potency of Cu-free compound against Mycobacterium smegmatis ATCC 607 [1] |
| --- | --- | --- |
| Cc1c(N)nc(C(CC(N)=O)NCC(N)C(=O)NC(C)C)nc1C(=O)NC(C(=O)NC(C)C(O)C(C)C(=O)NC(C(=O)NCCc1nc(-c2nc(C(=O)NCCc3c[nH]cn3)cs2)cs1)C(C)O)C(OC1OC(CO)C(O)C(O)C1OC1OC(CO)C(O)C(OC(N)=O)C1O)c1cnc[nH]1 (stereo not drawn) [Compound 3, 2-(4'-Imidazolyl)ethylamino-(amido)N--[isopropyl]-BLM] | 593 mcg potency/mg | 2778 mcg potency/mg |
| Cc1c(N)nc(C(CC(N)=O)NCC(N)C(=O)NCc2ccccc2)nc1C(=O)NC(C(=O)NC(C)C(O)C(C)C(=O)NC(C(=O)NCCc1nc(-c2nc(C(=O)NCCc3c[nH]cn3)cs2)cs1)C(C)O)C(OC1OC(CO)C(O)C(O)C1OC1OC(CO)C(O)C(OC(N)=O)C1O)c1cnc[nH]1 (stereo not drawn) [Compound 4, 2-(4'-Imidazolyl)ethylamino-(amido)N--[benzyl]-BLM] | 579 mcg potency/mg | 6595 mcg potency/mg |
| Cc1c(N)nc(C(CC(N)=O)NCC(N)C(=O)NCCCNC(C)c2ccccc2)nc1C(=O)NC(C(=O)NC(C)C(O)C(C)C(=O)NC(C(=O)NCCc1nc(-c2nc(C(=O)NCCc3c[nH]cn3)cs2)cs1)C(C)O)C(OC1OC(CO)C(O)C(O)C1OC1OC(CO)C(O)C(OC(N)=O)C1O)c1cnc[nH]1 [Compound 5, 2-(4'-Imidazolyl)ethylamino-(amido)N--[3-((S)-1'-phenylethyl)-aminopropyl]-BLM] | 3772 mcg potency/mg | 9846 mcg potency/mg |
| Cc1c(N)nc(C(CC(N)=O)NCC(N)C(=O)NCCN)nc1C(=O)NC(C(=O)NC(C)C(O)C(C)C(=O)NC(C(=O)NCCc1nc(-c2nc(C(=O)NCCc3c[nH]cn3)cs2)cs1)C(C)O)C(OC1OC(CO)C(O)C(O)C1OC1OC(CO)C(O)C(OC(N)=O)C1O)c1cnc[nH]1 (stereo not drawn) [Compound 6, 2-(4'-Imidazolyl)ethylamino-(amido)N--[2-aminoethyl]-BLM] | 4453 mcg potency/mg | 2396 mcg potency/mg |
| Cc1c(N)nc(C(CC(N)=O)NCC(N)C(=O)NC(C)C)nc1C(=O)NC(C(=O)NC(C)C(O)C(C)C(=O)NC(C(=O)NCCc1nc(-c2nc(C(=O)NCCCCNC(=N)N)cs2)cs1)C(C)O)C(OC1OC(CO)C(O)C(O)C1OC1OC(CO)C(O)C(OC(N)=O)C1O)c1cnc[nH]1 (stereo not drawn) [Compound 7, 4-Guanidinobutylamino-(amido)N--[isopropyl]-BLM] | 1950 mcg potency/mg | 6425 mcg potency/mg |
| Cc1c(N)nc(C(CC(N)=O)NCC(N)C(=O)NCC(F)(F)F)nc1C(=O)NC(C(=O)NC(C)C(O)C(C)C(=O)NC(C(=O)NCCc1nc(-c2nc(C(=O)NCCCCNC(=N)N)cs2)cs1)C(C)O)C(OC1OC(CO)C(O)C(O)C1OC1OC(CO)C(O)C(OC(N)=O)C1O)c1cnc[nH]1 (stereo not drawn) [Compound 9, 4-Guanidinobutylamino-(amido)N--[2',2',2'-trifluoroethyl]-BLM] | 730 mcg potency/mg | 3990 mcg potency/mg |
| CCCCCCCCNC(=O)C(N)CNC(CC(N)=O)c1nc(N)c(C)c(C(=O)NC(C(=O)NC(C)C(O)C(C)C(=O)NC(C(=O)NCCc2nc(-c3nc(C(=O)NCCCCNC(=N)N)cs3)cs2)C(C)O)C(OC2OC(CO)C(O)C(O)C2OC2OC(CO)C(O)C(OC(N)=O)C2O)c2cnc[nH]2)n1 (stereo not drawn) [Compound 10, 4-Guanidinobutylamino-(amido)N--[octyl]-BLM] | 1500 mcg potency/mg | 33700 mcg potency/mg |
| Cc1c(N)nc(C(CC(N)=O)NCC(N)C(=O)NCCCNC(C)c2ccccc2)nc1C(=O)NC(C(=O)NC(C)C(O)C(C)C(=O)NC(C(=O)NCCc1nc(-c2nc(C(=O)NCCCCNC(=N)N)cs2)cs1)C(C)O)C(OC1OC(CO)C(O)C(O)C1OC1OC(CO)C(O)C(OC(N)=O)C1O)c1cnc[nH]1 [Compound 11, 4-Guanidinobutylamino-(amido)N--[3-((S)-1'-phenylethyl)amino-propyl]-BLM] | 7036 mcg potency/mg | 15729 mcg potency/mg |
| CCCCN(CCCC)CCCNC(=O)C(N)CNC(CC(N)=O)c1nc(N)c(C)c(C(=O)NC(C(=O)NC(C)C(O)C(C)C(=O)NC(C(=O)NCCc2nc(-c3nc(C(=O)NCCCCNC(=N)N)cs3)cs2)C(C)O)C(OC2OC(CO)C(O)C(O)C2OC2OC(CO)C(O)C(OC(N)=O)C2O)c2cnc[nH]2)n1 (stereo not drawn) [Compound 12] | 4384 mcg potency/mg | 16438 mcg potency/mg |
| CCCCCCCCCCCCNC(=O)C(N)CNC(CC(N)=O)c1nc(N)c(C)c(C(=O)NC(C(=O)NC(C)C(O)C(C)C(=O)NC(C(=O)NCCc2nc(-c3nc(C(=O)NCCCCNC(=N)N)cs3)cs2)C(C)O)C(OC2OC(CO)C(O)C(O)C2OC2OC(CO)C(O)C(OC(N)=O)C2O)c2cnc[nH]2)n1 (stereo not drawn) [Compound 13, 4-Guanidinobutylamino-(amido)N--[lauryl]-BLM] | 660 mcg potency/mg | 7650 mcg potency/mg |
| Cc1c(N)nc(C(CC(N)=O)NCC(N)C(=O)NCc2ccccc2)nc1C(=O)NC(C(=O)NC(C)C(O)C(C)C(=O)NC(C(=O)NCCc1nc(-c2nc(C(=O)NCCCCNC(=N)N)cs2)cs1)C(C)O)C(OC1OC(CO)C(O)C(O)C1OC1OC(CO)C(O)C(OC(N)=O)C1O)c1cnc[nH]1 (stereo not drawn) [Compound 14, 4-Guanidinobutylamino-(amido)N--[benzyl]-BLM] | 1650 mcg potency/mg | 28140 mcg potency/mg |
| Cc1c(N)nc(C(CC(N)=O)NCC(N)C(=O)NC(c2ccccc2)c2ccccc2)nc1C(=O)NC(C(=O)NC(C)C(O)C(C)C(=O)NC(C(=O)NCCc1nc(-c2nc(C(=O)NCCCCNC(=N)N)cs2)cs1)C(C)O)C(OC1OC(CO)C(O)C(O)C1OC1OC(CO)C(O)C(OC(N)=O)C1O)c1cnc[nH]1 (stereo not drawn) [Compound 15, 4-Guanidinobutylamino-(amido)N--[diphenylmethyl]-BLM] | 980 mcg potency/mg | 42320 mcg potency/mg |
| Cc1c(N)nc(C(CC(N)=O)NCC(N)C(=O)NC(Cc2ccccc2)c2ccccc2)nc1C(=O)NC(C(=O)NC(C)C(O)C(C)C(=O)NC(C(=O)NCCc1nc(-c2nc(C(=O)NCCCCNC(=N)N)cs2)cs1)C(C)O)C(OC1OC(CO)C(O)C(O)C1OC1OC(CO)C(O)C(OC(N)=O)C1O)c1cnc[nH]1 (stereo not drawn) [Compound 16, 4-Guanidinobutylamino-(amido)N--[1',2'-diphenylethyl]-BLM] | 520 mcg potency/mg | 24480 mcg potency/mg |
| Cc1c(N)nc(C(CC(N)=O)NCC(N)C(=O)Nc2ccc3ccccc3c2)nc1C(=O)NC(C(=O)NC(C)C(O)C(C)C(=O)NC(C(=O)NCCc1nc(-c2nc(C(=O)NCCCCNC(=N)N)cs2)cs1)C(C)O)C(OC1OC(CO)C(O)C(O)C1OC1OC(CO)C(O)C(OC(N)=O)C1O)c1cnc[nH]1 (stereo not drawn) [Compound 17, 4-Guanidinobutylamino-(amido)N--[β-naphthyl]-BLM] | 1295 mcg potency/mg | 33650 mcg potency/mg |
| Cc1c(N)nc(C(CC(N)=O)NCC(N)C(=O)NCc2ccco2)nc1C(=O)NC(C(=O)NC(C)C(O)C(C)C(=O)NC(C(=O)NCCc1nc(-c2nc(C(=O)NCCCCNC(=N)N)cs2)cs1)C(C)O)C(OC1OC(CO)C(O)C(O)C1OC1OC(CO)C(O)C(OC(N)=O)C1O)c1cnc[nH]1 (stereo not drawn) [Compound 18, 4-Guanidinobutylamino-(amido)N--[2-furylmethyl]-BLM] | 1285 mcg potency/mg | 19150 mcg potency/mg |
| Cc1c(N)nc(C(CC(N)=O)NCC(N)C(=O)NCc2cccnc2)nc1C(=O)NC(C(=O)NC(C)C(O)C(C)C(=O)NC(C(=O)NCCc1nc(-c2nc(C(=O)NCCCCNC(=N)N)cs2)cs1)C(C)O)C(OC1OC(CO)C(O)C(O)C1OC1OC(CO)C(O)C(OC(N)=O)C1O)c1cnc[nH]1 (stereo not drawn) [Compound 19, 4-Guanidinobutylamino-(amido)N--[3-pyridylmethyl]-BLM] | 1010 mcg potency/mg | 5160 mcg potency/mg |
| Cc1c(N)nc(C(CC(N)=O)NCC(N)C(=O)NCc2nccs2)nc1C(=O)NC(C(=O)NC(C)C(O)C(C)C(=O)NC(C(=O)NCCc1nc(-c2nc(C(=O)NCCCCNC(=N)N)cs2)cs1)C(C)O)C(OC1OC(CO)C(O)C(O)C1OC1OC(CO)C(O)C(OC(N)=O)C1O)c1cnc[nH]1 (stereo not drawn) [Compound 20, 4-Guanidinobutylamino-(amido)N--[2-thiazolylmethyl]-BLM] | 900 mcg potency/mg | 4870 mcg potency/mg |
| Cc1c(N)nc(C(CC(N)=O)NCC(N)C(=O)NCc2ccccc2)nc1C(=O)NC(C(=O)NC(C)C(O)C(C)C(=O)NC(C(=O)NCCc1nc(-c2nc(C(=O)NCCCNC(C)c3ccccc3)cs2)cs1)C(C)O)C(OC1OC(CO)C(O)C(O)C1OC1OC(CO)C(O)C(OC(N)=O)C1O)c1cnc[nH]1 [Compound 23, 3-((S)-1'-phenylethyl)aminopropylamino-(amido)N--[benzyl]-BLM] | 1380 mcg potency/mg | 38348 mcg potency/mg |
